Measurements taken from patent US20250171744A1, “METHODS OF REPROGRAMMING SOMATIC CELLS AND MATERIALS RELATED THERETO” (CITY OF HOPE, priority 2019, published 2025).
“Also recorded” adds a separate entry of the source.

How the values were obtained:
[1] = tested on: human fibroblast (HF57) cells; test: Immunofluorescence of pluripotency surface markers (FIG. 25, 26); format: cell-based; settings: for SSEA-4 and TRA 1-60 surface markers immunofluorescence: 1 μM for 7 days, DMEM with low methionine (15 mg/L)
Description: Post MTX treatment, the cells were labeled using primary antibodies (ant-SSEA4-anti mouse IgG3) followed by secondary antibodies conjugated to Alexa Fluor 488 goat anti-mouse IgG3. The cells were counterstained with DAPI. […] The cells were grown in regular DMEM medium with or without MTX. Scale Bar=400 μM.
Post MTX treatment, the cells were labeled using primary antibodies (anti-SSEA4-anti mouse IgG3 and anti-TRA 1-60 host-rabbit) followed by secondary antibodies conjugated to (Alexa Fluor 488 goat anti-mouse IgG3 and Alexa Fluor 594 donkey anti-rabbit). The cells were counterstained with DAPI. […] The cells were grown in DMEM medium with low methionine (15 mg/L). Scale Bar=400 μM (FIG. 26A); Scale Bar=200 μM (FIG. 26B).
Immunofluorescence analysis: The relative optimal image-based analysis of 2 key human pluripotent stem cells markers [octamer-binding transcription factor 4 (OCT4) and stage-specific embryonic antigen 4 (SSEA4)] was performed using the Pluripotent Stem Cell Immunocytochemistry Kit (Thermo Fisher Scientific) according to the manufacturer's instructions. Briefly, the cells were grown in 10% FBS DMEM supplemented with NEAAs and Glutamax in wells coated with 0.1% gelatin. For immunofluorescence localization, the cells were stained for SSEA4 and Oct4 and counterstained with DAPI using the kit (Thermo Fisher Scientific). The endogenous proteins were labeled using primary antibodies (anti-SSEA4 anti-mouse IgG3 and anti-OCT4 host-rabbit) followed by secondary antibodies conjugated to Alexa Fluor 488 goat anti-mouse IgG3 and Alexa Fluor 594 donkey anti-rabbit.
The quiescent nature of the MTX and PTX cells and the association of demethylation with the generation of induced pluripotent stem cells led to examining markers for stem cells formation. The 293T and HF57 cells were grown on 5% dialyzed FBS DMEM medium. DMEM without methionine, DMEM with 15 mg/L (half dose) and DMEM with 30 mg/L (regular DMEM) were used to grow the cells. […] Subsequently, the cells were assessed for markers linked to stem cells. […]

HF57 = test: Embryoid body formation from SSEA4 positive sorted cells (FIG. 27); format: cell-based, human; settings: treated 7 or more days, low methionine, mTeSR Plus + HT, after 15-days
Description: HEK293T and HF57 were treated with MTX and PTX for 7 or more days in low methionine condition. SSEA4 positive cells were sorted using cell sorter and maintained on mTeSR™ Plus medium supplemented with HT.

[2] = tested on: MTX/PTX treated and SSEA4 positive cells; test: Cardiomyocyte marker expression in cardiomyocytes differentiation medium (FIG. 31); format: cell-based, human
Description: MTX/PTX treated and SSEA4 positive cells were maintained on Matrigel-coated 6-well plates in mTeSR1 medium. To induce differentiation, cells with EB-like morphology were dissociated with Accutase (Invitrogen) at 37° C. for 5 minutes and then single cell suspension was seeded onto a Matrigel-coated cell-culture dish at 100,000 cell/cm^2 in mTeSR1 supplemented with 5 μM ROCK inhibitor (Y-27632) for 24 hours. The cells then were cultured in mTeSR1 medium, which was changed daily. Next, 8 μl of 36 mM CHIR99021 were added into 24 ml RPMI/B27-insulin medium to make 12 μM CHIR99021 RPMI/B27-insulin medium and 2-ml of this were added to each well after the old mTeSR1 medium was removed. Exactly 24 hours after adding CHIR, the medium was replaced with 2 ml room temperature RPMI/B27-insulin. The plate was put back into the 37° C., 5% CO2 incubator. 72 hours post addition of CHIR99021, 1 ml medium from each well was removed and the remaining 1-ml was supplemented with 1-ml RPMI/B27-insulin with 5 μM IWP2 (WNT pathway inhibitor). After 48 hours, the medium was replaced with fresh RPMI/B27-insulin and this was incubated at 37° C., 5% CO2 incubator. After this, every 2-days, the old medium was removed from each well of the 12-well plate and 2 ml/well room temperature RPMI/B27 medium was added and incubated at 37° C., 5% CO2. Spontaneous contraction should occur by day 14 and spontaneous beating can be maintained for several weeks. […] The expression of the key cardiomyocyte markers, Nkx2, which is an early cardiac transcriptional factor, indicative of cardiac progenitor phenotype, and cTNT, which is cardiac troponin T, a muscle contractility regulatory protein, indicative of a mature cardiac phenotype, were tested.

HF57 cells = test: qRT-PCR relative transcript levels (FIG. 21B, FIG. 32); format: cell-based, human; settings: for transcripts level of DNMT1 / transcripts level of MTHFR / transcripts level of MTR / relative transcripts level of Nanog / relative transcripts level of Oct4 / relative transcripts level of Sox2: FIG. 21B; for relative transcripts level of Nanog / relative transcripts level of Oct4 / relative transcripts level of Sox2: vs control cells
Description: Also, the cells were treated with PTX for 2-days only. Since exposure time of PTX or MTX is very critical for gene expression or other genetic changes, the expression of ANOS could be higher after prolonged exposure to PTX.
(§1) To validate microarray results, quantitative 2-step RT-PCR was performed. One microgram of total RNA was reverse transcribed to first-strand cDNA with the Qiagen cDNA Synthesis Kit (Qiagen), and this cDNA was subsequently used as a template for quantitative PCR with gene-specific primers. The ubiquitous β-actin gene served as a control for constitutive gene expression. The quantitative RT-PCR (qRT-PCR) reactions were performed using Power Sybr Green PCR Master Mix (Thermo Fisher Scientific) on a CFX96 Touch Real-Time PCR Detection System (Bio-Rad, Hercules, CA, USA). Relative expression levels (2^−ΔCt) were calculated according to the Livak and Schmittgen method (40). Expression levels of each gene were compared with the expression level of actin.
The quiescent nature of the MTX and PTX cells and the association of demethylation with the generation of induced pluripotent stem cells led to examining markers for stem cells formation. The 293T and HF57 cells were grown on 5% dialyzed FBS DMEM medium. DMEM without methionine, DMEM with 15 mg/L (half dose) and DMEM with 30 mg/L (regular DMEM) were used to grow the cells. Once the cells attained 70% confluency, HF57 were treated with 1-μM MTX or PTX and HEK293T were treated with 500 nM MTX or 1 μM PTX. The cells were treated with MTX or PTX for 7-days, and subsequently the medium was replaced with N2B27 medium (Thermo Fisher Scientific, USA). The cells were grown in N2B27 medium for 15 days which supported undifferentiated growth of human embryonic stem cells. Subsequently, these cells were maintained in MTeSR medium supplemented with sodium hypoxanthine and thymidine (HT) for 15 or more days. These conditions supported prolonged self-renewal of putative pluripotent cells, and they were able to form colonies and later embryoid bodies in vitro. Subsequently, the cells were assessed for markers linked to stem cells. Transcriptomics and qRT-PCR were performed to examine whether ES cell marker genes were expressed in these cells. Both MTX and PTX treated cells expressed the marker genes (FIGS. 20-21 and 25-26). […] To authenticate these findings, two key pluripotency markers (SSEA-4 and TRA 1-60) were examined using immunofluorescence.

[3] = tested on: Sox2 and Oct4 (stem cell markers); test: qRT-PCR relative transcript levels of stem cell markers (FIG. 21A); format: cell-based, human; settings: cell line not given, vs control cells
Description: as §1

[4] = Cardiomyocyte differentiation, correlative immunostaining (FIG. 31); format: cell-based, human; settings: MTX Treated; vs H1 positive and untreated negative control
Description: (§2) MTX/PTX treated and SSEA4 positive cells were maintained on Matrigel-coated 6-well plates in mTeSR1 medium. To induce differentiation, cells with EB-like morphology were dissociated with Accutase (Invitrogen) at 37° C. for 5 minutes and then single cell suspension was seeded onto a Matrigel-coated cell-culture dish at 100,000 cell/cm^2 in mTeSR1 supplemented with 5 μM ROCK inhibitor (Y-27632) for 24 hours. The cells then were cultured in mTeSR1 medium, which was changed daily. Next, 8 μl of 36 mM CHIR99021 were added into 24 ml RPMI/B27-insulin medium to make 12 μM CHIR99021 RPMI/B27-insulin medium and 2-ml of this were added to each well after the old mTeSR1 medium was removed. Exactly 24 hours after adding CHIR, the medium was replaced with 2 ml room temperature RPMI/B27-insulin. The plate was put back into the 37° C., 5% CO2 incubator. 72 hours post addition of CHIR99021, 1 ml medium from each well was removed and the remaining 1-ml was supplemented with 1-ml RPMI/B27-insulin with 5 μM IWP2 (WNT pathway inhibitor). After 48 hours, the medium was replaced with fresh RPMI/B27-insulin and this was incubated at 37° C., 5% CO2 incubator. After this, every 2-days, the old medium was removed from each well of the 12-well plate and 2 ml/well room temperature RPMI/B27 medium was added and incubated at 37° C., 5% CO2. […]

293T cells = test: as above; format: cell-based, human; settings: MTX Treated; vs H1 positive and untreated negative control
Description: as §2

SMILES | SSEA-4 surface antigen immunofluorescence ([1]; 1 μM for 9-days, regular DMEM, no signals in control cells) | SSEA-4 and TRA 1-60 surface markers immunofluorescence [1] | embryoid body formation (HF57) | expression of Nkx2 [2] | expression of cTNT [2] | transcripts level of DNMT1 (HF57 cells) | transcripts level of MTHFR (HF57 cells) | transcripts level of MTR (HF57 cells) | relative transcripts level of Nanog (HF57 cells) | relative transcripts level of Oct4 (HF57 cells) | relative transcripts level of Sox2 (HF57 cells) | relative transcripts level of Oct4 [3] | relative transcripts level of Sox2 [3] | cardiac muscle cells in the differentiation medium [4] | cardiac muscle cells in the differentiation medium (293T cells) | expression of ANKRD1 (HF57 cells; treated for 2-days) | expression of ANOS (HF57 cells; treated for 2-days)
CN(Cc1cnc2nc(N)nc(N)c2n1)c1ccc(C(=O)N[C@@H](CCC(=O)O)C(=O)O)cc1 [MTX, methotrexate] | expression of SSEA-4 surface antigens | high levels of SSEA-4 and TRA 1-60; also recorded: expression of SSEA-4 and TRA 1-60 surface antigens | start forming embryoid bodies | significantly up-regulated | significantly up-regulated | significantly reduced | significantly reduced | significantly reduced | significantly higher | significantly higher | significantly higher | significantly higher | significantly higher | had cardiac muscle cells | had cardiac muscle cells | – | –
Nc1nc2[nH]cc(CCc3ccc(C(=O)N[C@@H](CCC(=O)O)C(=O)O)cc3)c2c(=O)[nH]1 [PTX, pemetrexed] | – | expression of SSEA-4 and TRA 1-60 surface markers | start forming embryoid bodies | significantly up-regulated | significantly up-regulated | significantly reduced | significantly reduced | significantly reduced | significantly higher | significantly higher | significantly higher | – | – | – | – | significantly higher than control | significantly higher than control
